How the values were obtained:
[1] = pKa of basic side chain / imidazole ring; assay type: physicochemical
[2] = basic side chain / imidazole ring; cited from earlier work
[3] = tested on: 293T7 cells (human kidney embryonal fibroblasts); experiment: Transfection of 293T7 cells with luciferase plasmid/liposome complexes; assay type: cell-based; details: for transfection efficiency when associated with co-lipids 2c or 7b compared with DOPE: 293T line cells, tests considered as a whole; for observed luminescence values: 293T cells; for efficiency gain as compared to DOPE: value in brackets
Protocol: A lipid film was prepared in a sterile flask under nitrogen by dry evaporating 1 mL of a 10.8 mM cationic lipid or a mixture of a cationic lipid/neutral lipid (molar ratio 1:1) in ethanol. The film was then hydrated with 1 mL of 10 mM HEPES buffer, pH 7.4, the solution was vigorously stirred for 3 min, then allowed to rest at 4° C. After 2 h, the solution was sonicated for 15 min in an ultrasonic bath at 37 kHz (Bioblock ultrasonic bath, Bioblock Scientific, Illkirch, France).
18 μl of a solution of liposomes at 5.4 mM were diluted in 200 μl of 10 mM HEPES buffer, pH 7.4. After 15 min, 7.5 μg of a plasmid encoding the gene of the luciferase (pTG11033; 9514 bp, Transgene S. A., Strasbourg, France) in 20 μl of 10 mM HEPES buffer, pH 7.4, were added to the liposomes and the mixture was allowed to rest for 30 min. The solution comprising the DNA/liposome complexes was adjusted to 1.5 ml with some culture medium free of serum and at 0.15M NaCl with a solution of 5M NaCl.
Two days before transfection, 293T7 cells (human kidney embryonal fibroblasts) were seeded with 1×10^5 cells in 1 mL of a culture medium in a 24-well plate. The day of the transfection, cells achieved 80% confluence. Cells were washed twice with some medium free of serum prior to adding 2.5 μg of DNA in the form of DNA/liposome complexes. After 4 h of incubation at 37° C., the medium was removed and cells were cultured for 48 h with complete culture medium.
The culture medium of the cells was removed and each well was rinsed with 500 μL of PBS. Cell detachment was obtained with 500 μL of the PBS+trypsin per well for 5 min at 37° C. The cell suspension was then centrifuged for 5 min at 250×g (1500 rpm) at 20° C. 400 μL of lysis buffers (CCLR, Promega) were added on the cell pellet, which was allowed to incubate onto ice for 15 min. After Vortex-stirring, centrifugation was effected at 12 000×g for 2 min at 4° C. The luciferase activity contained in 20 μL of supernatant was measured using a luminometer (Bertold Lumat LB 9501) for 10 seconds after injection of 100 μL of luciferin (Luciferase Assay Reagent, Promega). The light transmitted was converted to arbitrary units relative to the protein amount in the sample determined through the bicinchoninic acid method.
The protein amount in the lysate was evaluated through the BCA method (H. Hill and G. Straka, 1998). Proteins were contacted with bicinchoninic acid (BCA) and copper ions in an alkaline medium. The copper ions resulting from the protein-mediated reduction thereof formed stable, colored complexes with BCA. Coloration is objectified through spectrophotometric determination (562 nm). Once a standard range was obtained using bovine serum albumin, the weight of protein contained in the cell lysates was calculated.

[4] = co-lipid 2c (molar ratio 1:1), 48 h after transfection
[5] = co-lipid 7b (molar ratio 1:1), 48 h after transfection
[6] = co-lipid DOPE (molar ratio 1:1), 48 h after transfection
[7] = no co-lipid (—), luciferase plasmid pTG11033, 48 h after transfection

Row | imidazole ring protonated at a physiological pH [1] | Compound | pKa [2] | transfection efficiency when associated with co-lipids 2c or 7b compared with DOPE [3] | observed luminescence values [3, 4] | efficiency gain as compared to DOPE ([3]; co-lipid 2c) | observed luminescence values [3, 5] | efficiency gain as compared to DOPE ([3]; co-lipid 7b) | observed luminescence values [3, 6] | observed luminescence values [3, 7]
1 | about 5% | N[C@@H](Cc1c[nH]cn1)C(=O)O [histidine] |  |  |  |  |  |  |  | 
2 |  | COC(=O)[C@@H](N)CCCNC(=N)N [arginine methyl ester] | 12.48 |  |  |  |  |  |  | 
3 |  | COC(=O)[C@@H](N)CCCCN [lysine methyl ester] | 10.57 |  |  |  |  |  |  | 
4 |  | c1c[nH]cn1 [imidazole] | about 6 |  |  |  |  |  |  | 
5 |  | homoarginine methyl ester dioleoyl-N-phosphoramidate [3b] |  | more efficient | 3.10^9 TRLU | 1000 | 3.10^7 TRLU | 10 | 3.10^6 TRLU | 9.10^6 TRLU
6 |  | arginine methyl ester dioleoyl-N-phosphoramidate [3a] |  | more efficient | 5.10^8 TRLU | 100 | 10^6 TRLU | 0.2 | 5.10^6 TRLU | 7.10^6 TRLU
7 |  | lysine methyl ester dioleoyl-N-phosphoramidate [compound 4] |  | more efficient | 5.10^7 TRLU | 1.6 | 4.10^7 TRLU | 1.3 | 3.10^7 TRLU | 2.10^7 TRLU
8 |  | N=C(N)NCCCC[C@H](N)C(=O)O [Homoarginine] | 12.5 |  |  |  |  |  |  | 

— patent US20110008415A1, “NOVEL LIPOPHILIC COMPOSITIONS AND USES THEREOF” (UNIVERSITE DE BRETAGNE OCCIDENTALE, priority 2007, published 2011)
